Target: T1, Gag-Pol polyprotein [588-1027]/[588-1147] (Human immunodeficiency virus 1, UniProt P04585)
T1 construct: 588-1027; 588-1147
Test: HIV-1 RT Assay
Details: pH 8.2; 37 °C
Text: The IC50 of reverse transcriptase is the concentration that inhibits 50% of recombinant HIV-1 RT RNA-directed DNA polymerase activity in vitro.

Row | Structure (SMILES) | IC50 [nM]
1 | O=C(c1ccccc1)N1c2ccccc2NC(=O)C1(C#CC1CC1)C(F)(F)F (stereo not drawn) [4-benzoyl-3-(2-cyclopropylethynyl)-3-(trifluoromethyl)-1,2,3,4-tetrahydroquinoxalin-2-one] | > 5000
2 | O=C(C1CC1)N1c2ccccc2NC(=O)C1(C#CC1CC1)C(F)(F)F (stereo not drawn) [4-cyclopropanecarbonyl-3-(2-cyclopropylethynyl)-3-(trifluoromethyl)-1,2,3,4-tetrahydroquinoxalin-2-one] | 127
3 | CC(C)C(=O)N1c2ccccc2NC(=O)C1(C#CC1CC1)C(F)(F)F (stereo not drawn) [3-(2-cyclopropylethynyl)-4-(2-methylpropanoyl)-3-(trifluoromethyl)-1,2,3,4-tetrahydroquinoxalin-2-one] | 160
